# From US20250387298A1, “FLEXIBLE MEDICAL CONTAINER” (B. Braun Melsungen AG, priority 2024, published 2025)
# Read-outs that look alike come from different tables or passages of the source. Marks after values point to notes of the source that are not given here.
# Experiment: Simulating experiments: Pip-Taz powder incubated with potential impurities in glass vials, turbidity after reconstitution
# Type: physicochemical
# Protocol: In order to mimic and evaluate the impact of Ti, Al, Sn, Ni, Mg, Cr, and Si containing impurities on the turbidity of piperacillin and tazobactam formation, the following simulating experiments were carried out (reference 6.7, Notebook BB5254/125, 134, 140-141, 145-146). Powders of piperacillin and tazobactam were mixed with different potential impurities in glass vials and incubated at 40° C. for 3 weeks. […] [table]
# [1] = 40° C. for 3 weeks in glass vial, 0.3 g Pip-Taz with 1-2 mg chemical, reconstituted in 12 mL 0.9% NaCl
# [2] = 40° C. for 3 weeks, chemical without drug, 0.9% NaCl
# [3] = Drug & Chemicals minus Chemical only, 40° C. for 3 weeks
# [4] = conclusion from Table 2, by metal/element of the impurity
molecule,measurement,setting,value
O[Si](O)(O)C1CCCCC1 [Cyclohexyl-dihydroxyl-hydroxylsilane],"Turbidity, Drug & Chemicals (Target Mole Ratio = 100:1, ~100 ppm for chemicals)",[1],18.20
same,"Turbidity, Chemical only (~100 ppm)",[2],0.54
same,Turbidity Delta,[3],17.66
same,impact on the turbidity of piperacillin and tazobactam,[4],substantial effect
O.O.O.O.O.O.[Cl][Cr]([Cl])[Cl] [chromium (Ill) chloride hexahydrate],"Turbidity, Drug & Chemicals (Target Mole Ratio = 100:1, ~100 ppm for chemicals)",[1],15.60
same,"Turbidity, Chemical only (~100 ppm)",[2],0.18
same,Turbidity Delta,[3],15.42
CC(=O)[O-].CC(=O)[O-].[Fe+2] [iron(ll) acetate],"Turbidity, Drug & Chemicals (Target Mole Ratio = 100:1, ~100 ppm for chemicals)",[1],98.77
same,"Turbidity, Chemical only (~100 ppm)",[2],9.66
same,Turbidity Delta,[3],89.10
O=S(=O)([O-])[O-].[Mg+2] [magnesium sulfate],"Turbidity, Drug & Chemicals",,1.53*
same,impact on the turbidity of piperacillin and tazobactam,,no impact
CC(=O)[O-].CC(=O)[O-].CC(=O)[O-].CC(=O)[O-].[Sn+4] [tin (IV) acetate],Turbidity Delta,,1.04
same,"Turbidity, Chemical only (~100 ppm)",,0.08
same,"Turbidity, Drug & Chemicals (Target Mole Ratio = 100:1, ~100 ppm for chemicals)",,1.13
CC(=O)/C=C(/C)[O-].CC(=O)/C=C(/C)[O-].[O]=[Ti+2] [titanium (IV) oxyacetylacetonate],"Turbidity, Drug & Chemicals (Target Mole Ratio = 100:1, ~100 ppm for chemicals)",[1],179.33
same,"Turbidity, Chemical only (~100 ppm)",[2],5.44
same,Turbidity Delta,[3],173.89
same,impact on the turbidity of piperacillin and tazobactam,[4],substantial effect
aluminum chloride hydrate,"Turbidity, Drug & Chemicals (Target Mole Ratio = 100:1, ~100 ppm for chemicals)",[1],3.01
same,"Turbidity, Chemical only (~100 ppm)",[2],0.13
same,Turbidity Delta,[3],2.88
same,impact on the turbidity of piperacillin and tazobactam,[4],substantial effect
